Values after ≈ are worked out from the molar mass of the structure shown. Read-outs that look alike come from different tables or passages of the source.
Assays:
Type in all cases: cell-based
Rhizoctonia solani (Rs) = experiment: In vitro pathogen growth inhibition assay, Rs (mycelial plugs); settings: Rhizoctonia solani, 48 h
Method: (§1) A growth inhibition assay was conducted to determine the ability of compounds to control the growth of fungal pathogens, such as Botrtyis cinerea (Bc), Collectotrichum graminicola (Cg), Diplodia maydis (Dm), Fusarium moniliforme (Fm), Fusarium virguliforme (Fv), Phytophthora capsici (Pc), Rhizoctonia solani (Rs), and Septoria tritici (St). The compounds listed in Table 1 were each dissolved in DMSO at 2.5 mg/ml to produce compound stock solutions (“stocks”). […] Negative controls on each plate included 2% DMSO, water, and a blank (media+2% DMSO). Fungal spores were isolated from previously sub-cultured plates of Botrtyis cinerea (Bc), Collectotrichum graminicola (Cg), Diplodia maydis (Dm), Fusarium moniliforme (Fm), Fusarium virguliforme (Fv), Phytophthora capsici (Pc), and Septoria tritici (St). The isolated spores were diluted to individual concentrations with a 17% V8 liquid media. For Rhizoctonia solani (Rs), 1.5 mm mycelial plugs were used in place of spores and ¼ Potato Dextrose Broth (PDB) was used for dilution. The spore concentrations and plug sizes were based on growth curves generated at 48 hours for each pathogen. In a second 96-well plate, the spores or mycelial plugs, media, diluted compound solutions, and controls were combined. Once the compound was added, a true final concentration of compound in each well was measured by an OD600 reading, which adjusted for any compound precipitation that might have occurred in the well. Plate readings were repeated at both 24 and 48 hours. The blank negative control was used as a background subtraction. Additional visual ratings were performed at both 24 and 48 hours for checking on precipitation and confirming efficacy. […] Both tables list the concentration of each compound that was sufficient to ≥90% inhibition of growth for each of the fungal pathogens listed above. In addition, some of compounds were tested in a yeast growth inhibition assay for Saccharomyces cerevisiae (Sc). Table 2 lists the concentration of the tested compound that was sufficient to ≥75% inhibition of Saccharomyces cerevisiae (Sc).

[1] = system: Collectotrichum graminicola (Cg); experiment: In vitro pathogen growth inhibition assay, Cg; settings: 48 h
Method: as §1

[2] = system: Fusarium virguliforme (Fv); experiment: In vitro pathogen growth inhibition assay, Fv
Method: as §1

[3] = system: Fusarium moniliforme (Fm); experiment: In vitro pathogen growth inhibition assay, Fm; settings: Fusarium verticillioides
Method: as §1

Diplodia maydis (Dm) = experiment: In vitro pathogen growth inhibition assay, Dm; settings: Stenocarpella maydis, 48 h
Method: as §1

[4] = system: Phytophthora capsici (Pc); experiment: In vitro pathogen growth inhibition assay, Pc; settings: 48 h
Method: as §1

Botrtyis cinerea (Bc) = experiment: In vitro pathogen growth inhibition assay, Bc; settings: 48 h
Method: as §1

Septoria tritici (St) = experiment: In vitro pathogen growth inhibition assay, St; settings: Zymoseptoria tritici, 48 h
Method: as §1

[5] = ≥90% inhibition, mycelial plugs, 48 hours vs 2% DMSO control, read-out: Compound Concentration (ppm) sufficient for ≥90% inhibition of growth, Rs
[6] = ≥90% inhibition, 48 hours vs 2% DMSO control, read-out: Compound Concentration (ppm) sufficient for ≥90% inhibition of growth, Cg
[7] = ≥90% inhibition, 48 hours vs 2% DMSO control, read-out: Compound Concentration (ppm) sufficient for ≥90% inhibition of growth, Fv
[8] = ≥90% inhibition, 48 hours vs 2% DMSO control, read-out: Compound Concentration (ppm) sufficient for ≥90% inhibition of growth, Fm
[9] = ≥90% inhibition, 48 hours vs 2% DMSO control, read-out: Compound Concentration (ppm) sufficient for ≥90% inhibition of growth, Dm
[10] = ≥90% inhibition, 48 hours vs 2% DMSO control, read-out: Compound Concentration (ppm) sufficient for ≥90% inhibition of growth, Pc
[11] = ≥90% inhibition, 48 hours vs 2% DMSO control, read-out: Compound Concentration (ppm) sufficient for ≥90% inhibition of growth, Bc
[12] = ≥90% inhibition, 48 hours vs 2% DMSO control, read-out: Compound Concentration (ppm) sufficient for ≥90% inhibition of growth, St
[13] = ≥90% growth inhibition, mycelial plugs, 48 hours, vs 2% DMSO control, read-out: Compound Concentration (ppm) sufficient for ≥90% inhibition of Rs
[14] = ≥90% growth inhibition, 48 hours, vs 2% DMSO control, read-out: Compound Concentration (ppm) sufficient for ≥90% inhibition of Cg
[15] = ≥90% growth inhibition, 48 hours, vs 2% DMSO control, read-out: Compound Concentration (ppm) sufficient for ≥90% inhibition of Fv
[16] = ≥90% growth inhibition, 48 hours, vs 2% DMSO control, read-out: Compound Concentration (ppm) sufficient for ≥90% inhibition of Fm
[17] = ≥90% growth inhibition, 48 hours, vs 2% DMSO control, read-out: Compound Concentration (ppm) sufficient for ≥90% inhibition of Dm
[18] = ≥90% growth inhibition, 48 hours, vs 2% DMSO control, read-out: Compound Concentration (ppm) sufficient for ≥90% inhibition of Pc
[19] = ≥90% growth inhibition, 48 hours, vs 2% DMSO control, read-out: Compound Concentration (ppm) sufficient for ≥90% inhibition of Bc
[20] = ≥90% growth inhibition, 48 hours, vs 2% DMSO control, read-out: Compound Concentration (ppm) sufficient for ≥90% inhibition of St

| SMILES | IC90 (Rhizoctonia solani (Rs); [5]) | IC90 [1, 6] | IC90 [2, 7] | IC90 [3, 8] | IC90 (Diplodia maydis (Dm); [9]) | IC90 [4, 10] | IC90 (Botrtyis cinerea (Bc); [11]) | IC90 (Septoria tritici (St); [12]) | IC90 (Rhizoctonia solani (Rs); [13]) | IC90 [1, 14] | IC90 [2, 15] | IC90 [3, 16] | IC90 (Diplodia maydis (Dm); [17]) | IC90 [4, 18] | IC90 (Botrtyis cinerea (Bc); [19]) | IC90 (Septoria tritici (St); [20]) | other results |
| --- | --- | --- | --- | --- | --- | --- | --- | --- | --- | --- | --- | --- | --- | --- | --- | --- | --- |
| CCNC(=O)C(C)(C)n1c(=O)c2c(C)c(C(=O)OCC)sc2n(C[C@H](OC2CCOCC2)c2ccccc2OC)c1=O [Compound I-175] |  |  |  |  |  |  |  |  |  |  |  |  |  |  |  |  | IC90 (Rhizoctonia solani (Rs); concentration sufficient to ≥90% inhibition of growth, 48 hours vs 2% DMSO control, read-out: Compound Concentration (ppm) for ≥90% inhibition, Rs): > 50 µg/mL; IC90 ([1]; concentration sufficient to ≥90% inhibition of growth, 48 hours vs 2% DMSO control, read-out: Compound Concentration (ppm) for ≥90% inhibition, Cg): 50 µg/mL (≈ 83.1 µM); IC90 ([2]; concentration sufficient to ≥90% inhibition of growth, 48 hours vs 2% DMSO control, read-out: Compound Concentration (ppm) for ≥90% inhibition, Fv): 10 µg/mL (≈ 16.6 µM); IC90 ([3]; concentration sufficient to ≥90% inhibition of growth, 48 hours vs 2% DMSO control, read-out: Compound Concentration (ppm) for ≥90% inhibition, Fm): 10 µg/mL (≈ 16.6 µM); IC90 (Diplodia maydis (Dm); concentration sufficient to ≥90% inhibition of growth, 48 hours vs 2% DMSO control, read-out: Compound Concentration (ppm) for ≥90% inhibition, Dm): 10 µg/mL (≈ 16.6 µM); IC90 ([4]; concentration sufficient to ≥90% inhibition of growth, 48 hours vs 2% DMSO control, read-out: Compound Concentration (ppm) for ≥90% inhibition, Pc): > 50 µg/mL; IC90 (Botrtyis cinerea (Bc); concentration sufficient to ≥90% inhibition of growth, 48 hours vs 2% DMSO control, read-out: Compound Concentration (ppm) for ≥90% inhibition, Bc): 2 µg/mL (≈ 3.32 µM); IC90 (Septoria tritici (St); concentration sufficient to ≥90% inhibition of growth, 48 hours vs 2% DMSO control, read-out: Compound Concentration (ppm) for ≥90% inhibition, St): > 50 µg/mL |
| COCCO[C@@H](Cn1c(=O)n(CC(=O)NC(C)C)c(=O)c2c(C)c(-n3nccn3)sc21)c1cc(F)ccc1OC [Compound I-086] | 10 µg/mL (≈ 17.4 µM) | > 50 µg/mL | ≥ 2 µg/mL | 0.08 µg/mL (≈ 0.139 µM) | > 50 µg/mL | > 50 µg/mL | > 50 µg/mL | > 50 µg/mL |  |  |  |  |  |  |  |  |  |
| COCCO[C@@H](Cn1c(=O)n(C(C)(C)C(=O)N2CCCC2)c(=O)c2c(C)c(-n3nccn3)sc21)c1cc(F)ccc1C [Compound I-249] |  |  |  |  |  |  |  |  | 10 µg/mL (≈ 16.7 µM) | 2 µg/mL (≈ 3.34 µM) | 2 µg/mL (≈ 3.34 µM) | 2 µg/mL (≈ 3.34 µM) | ≥ 10 µg/mL | > 50 µg/mL | 2 µg/mL (≈ 3.34 µM) | > 50 µg/mL |  |
| COc1ccc(F)cc1[C@@](O)(CO)Cn1c(=O)n(C(C)(C)C(=O)NC(C)C)c(=O)c2c(C)c(-n3nccn3)sc21 [Compound I-315] |  |  |  |  |  |  |  |  | 0.08 µg/mL (≈ 0.139 µM) | 0.08 µg/mL (≈ 0.139 µM) | 0.4 µg/mL (≈ 0.696 µM) | 0.08 µg/mL (≈ 0.139 µM) | 0.4 µg/mL (≈ 0.696 µM) | 2 µg/mL (≈ 3.48 µM) | 0.4 µg/mL (≈ 0.696 µM) | > 50 µg/mL |  |
| COc1ccc(F)cc1[C@H](Cn1c(=O)n(C(C)(C)C(=O)N2CCCCC2)c(=O)c2c(C)c(-c3ncco3)sc21)OC(C)C [Compound I-016] | 0.4 µg/mL (≈ 0.653 µM) | 2 µg/mL (≈ 3.26 µM) | 0.4 µg/mL (≈ 0.653 µM) | 0.08 µg/mL (≈ 0.131 µM) | 0.4 µg/mL (≈ 0.653 µM) | > 50 µg/mL | 0.4 µg/mL (≈ 0.653 µM) | > 10 µg/mL |  |  |  |  |  |  |  |  |  |
| COc1ccc(F)cc1[C@H](Cn1c(=O)n(C(C)(C)C(=O)NC2CC2)c(=O)c2c(C)c(-n3nccn3)sc21)OC(C)C [Compound I-078] | 0.4 µg/mL (≈ 0.684 µM) | 2 µg/mL (≈ 3.42 µM) | 0.4 µg/mL (≈ 0.684 µM) | 0.08 µg/mL (≈ 0.137 µM) | 2 µg/mL (≈ 3.42 µM) | > 50 µg/mL | 2 µg/mL (≈ 3.42 µM) | > 50 µg/mL |  |  |  |  |  |  |  |  |  |

Reference: US10941157B2, “Pesticidal compositions and uses thereof” (Gilead Apollo, LLC, priority 2015, dated 2021)
